{
  "source": "patent US20040072180A1",
  "about": "“Dna binding peptide domains and a method for providing domains of this type” (priority 2000, published 2004)",
  "system": "yeast strain YM 4271 transformed with pHISi3xE2Fwt",
  "assay": "Growth of pHISi3xE2Fwt-transformed yeast colonies on histidine-free minimal medium agar with increasing 3-aminotriazole",
  "type": "cell-based",
  "settings": "no histidine",
  "procedure": "1 μg of pHISi3xE2Fwt was completely linearized with 10 U of XhoI for 1 hour, purified using the QiaQuick PCR Purification Kit (Qiagen/Hilden, Germany) according to the manufacturer's instructions and taken up in 50 μl of water. […] This culture was incubated with shaking at 30° C. until an optical density of 0.4-0.6 at 600 nm was reached. The culture was then removed by centrifugation at 1000× g for 5 minutes, and the cells were taken up in 1.5 ml of 100 mM lithium acetate pH 7.5, 10 mM Tris-HCl pH 7.5, 1 mM EDTA. 100 μl of said cells, 50 μl of the linearized plasmid and 100 μg of heat-denatured salmon sperm DNA were admixed with 600 μl of a PEG/LiAc solution (100 mM lithium acetate pH 7.5, 10 mM Tris-HCl pH 7.5, 1 mM EDTA, 40% (w/v) polyethylene glycol 4000) and incubated with shaking at 30° C. for 30 min. After adding 70 μl of dimethyl sulfoxide, the mixture was incubated at 42° C. for 15 min. The cells were subsequently removed by centrifugation, washed in 1 ml of 10 mM Tris-HCl pH 7.5, 1 mM EDTA and plated out in their entirety on a minimal medium agar plate without addition of histidine, on which 12 colonies had grown after 7 days at 30° C.",
  "data": [
    {"smiles": "Nc1nc[nH]n1", "note": "[3-aminotriazole]", "values": [
      {"measurement": "3-AT concentration at which growth was completely suppressed", "setting": "one clone (yeast3xE2Fwt)", "result": 2, "unit": "mM"},
      {"measurement": "3-AT concentration at which growth was suppressed markedly", "setting": "one clone (yeast3xE2Fwt)", "result": 0.5, "unit": "mM"},
      {"measurement": "3-AT concentration at which growth was inhibited", "setting": "remaining 10 clones", "result": "> 30", "unit": "mM"},
      {"measurement": "3-AT concentration at which clones did not grow any more", "setting": "this clone and another clone", "result": 3, "unit": "mM"}
    ]}
  ]
}
